Reference: BigSolDB 2.1

For `CCOC(=O)Cc1c(C(=O)OCC)sc(N(CC(=O)OCC)CC(=O)OCC)c1C#N`, which solubility (mole fraction) (in acetone, 283.15 K) is on record?
Its solubility (mole fraction) is 0.0364.

And the solubility (mole fraction) (in acetone, 285.65 K)?
Its solubility (mole fraction) is 0.0394.

And the solubility (mole fraction) (in acetone, 288.15 K)?
The solubility (mole fraction) was 0.043.

And the solubility (mole fraction) (in acetone, 290.65 K)?
Its solubility (mole fraction) is 0.0456.

What about the solubility (mole fraction) (in acetone, 293.15 K) of the same compound?
Its solubility (mole fraction) is 0.0498.

And the solubility (mole fraction) (in acetone, 295.65 K)?
The solubility (mole fraction) was 0.0538.

What about the solubility (mole fraction) (in acetone, 298.15 K) of the same compound?
The solubility (mole fraction) was 0.0582.

And the solubility (mole fraction) (in acetone, 300.65 K)?
The solubility (mole fraction) was 0.0627.

And the solubility (mole fraction) (in acetone, 303.15 K)?
Its solubility (mole fraction) is 0.0672.

What about the solubility (mole fraction) (in acetone, 305.65 K) of the same compound?
The solubility (mole fraction) was 0.073.

And the solubility (mole fraction) (in acetone, 308.15 K)?
Its solubility (mole fraction) is 0.079.

And the solubility (mole fraction) (in acetone, 310.65 K)?
The solubility (mole fraction) was 0.0853.

What about the solubility (mole fraction) (in acetone, 313.15 K) of the same compound?
The solubility (mole fraction) was 0.0921.

What about the solubility (mole fraction) (in acetone, 315.65 K) of the same compound?
Its solubility (mole fraction) is 0.0995.

And the solubility (mole fraction) (in acetone, 318.15 K)?
The solubility (mole fraction) was 0.107.

And the solubility (mole fraction) (in acetone, 320.65 K)?
Its solubility (mole fraction) is 0.116.

What about the solubility (mole fraction) (in acetone, 323.15 K) of the same compound?
The solubility (mole fraction) was 0.126.

What about the solubility (mole fraction) (in acetonitrile, 283.15 K) of the same compound?
The solubility (mole fraction) was 0.0196.

What about the solubility (mole fraction) (in acetonitrile, 285.65 K) of the same compound?
The solubility (mole fraction) was 0.0211.

And the solubility (mole fraction) (in acetonitrile, 288.15 K)?
The solubility (mole fraction) was 0.0234.

And the solubility (mole fraction) (in acetonitrile, 290.65 K)?
Its solubility (mole fraction) is 0.0255.

And the solubility (mole fraction) (in acetonitrile, 293.15 K)?
Its solubility (mole fraction) is 0.028.

And the solubility (mole fraction) (in acetonitrile, 295.65 K)?
Its solubility (mole fraction) is 0.0303.

What about the solubility (mole fraction) (in acetonitrile, 298.15 K) of the same compound?
Its solubility (mole fraction) is 0.0334.

What about the solubility (mole fraction) (in acetonitrile, 300.65 K) of the same compound?
The solubility (mole fraction) was 0.0365.

And the solubility (mole fraction) (in acetonitrile, 303.15 K)?
The solubility (mole fraction) was 0.0396.

And the solubility (mole fraction) (in acetonitrile, 305.65 K)?
The solubility (mole fraction) was 0.0433.

And the solubility (mole fraction) (in acetonitrile, 308.15 K)?
The solubility (mole fraction) was 0.0473.

What about the solubility (mole fraction) (in acetonitrile, 310.65 K) of the same compound?
The solubility (mole fraction) was 0.0515.

And the solubility (mole fraction) (in acetonitrile, 313.15 K)?
The solubility (mole fraction) was 0.0562.

What about the solubility (mole fraction) (in acetonitrile, 315.65 K) of the same compound?
The solubility (mole fraction) was 0.0612.

And the solubility (mole fraction) (in acetonitrile, 318.15 K)?
Its solubility (mole fraction) is 0.067.

What about the solubility (mole fraction) (in acetonitrile, 320.65 K) of the same compound?
Its solubility (mole fraction) is 0.0734.

What about the solubility (mole fraction) (in acetonitrile, 323.15 K) of the same compound?
Its solubility (mole fraction) is 0.0805.

What about the solubility (mole fraction) (in cyclohexane, 283.15 K) of the same compound?
Its solubility (mole fraction) is 5.19e-05.

What about the solubility (mole fraction) (in cyclohexane, 285.65 K) of the same compound?
Its solubility (mole fraction) is 6.04e-05.

And the solubility (mole fraction) (in cyclohexane, 288.15 K)?
Its solubility (mole fraction) is 7.21e-05.

What about the solubility (mole fraction) (in cyclohexane, 290.65 K) of the same compound?
Its solubility (mole fraction) is 8.6e-05.

What about the solubility (mole fraction) (in cyclohexane, 293.15 K) of the same compound?
The solubility (mole fraction) was 0.000102.

And the solubility (mole fraction) (in cyclohexane, 295.65 K)?
Its solubility (mole fraction) is 0.00012.

What about the solubility (mole fraction) (in cyclohexane, 298.15 K) of the same compound?
The solubility (mole fraction) was 0.000142.

What about the solubility (mole fraction) (in cyclohexane, 300.65 K) of the same compound?
Its solubility (mole fraction) is 0.00017.

And the solubility (mole fraction) (in cyclohexane, 303.15 K)?
Its solubility (mole fraction) is 0.000199.

And the solubility (mole fraction) (in cyclohexane, 305.65 K)?
The solubility (mole fraction) was 0.000236.

And the solubility (mole fraction) (in cyclohexane, 308.15 K)?
Its solubility (mole fraction) is 0.000279.

What about the solubility (mole fraction) (in cyclohexane, 310.65 K) of the same compound?
Its solubility (mole fraction) is 0.000324.

And the solubility (mole fraction) (in cyclohexane, 313.15 K)?
Its solubility (mole fraction) is 0.00038.

What about the solubility (mole fraction) (in cyclohexane, 315.65 K) of the same compound?
The solubility (mole fraction) was 0.000444.

What about the solubility (mole fraction) (in cyclohexane, 318.15 K) of the same compound?
The solubility (mole fraction) was 0.000516.

And the solubility (mole fraction) (in cyclohexane, 320.65 K)?
Its solubility (mole fraction) is 0.000596.

What about the solubility (mole fraction) (in cyclohexane, 323.15 K) of the same compound?
The solubility (mole fraction) was 0.0007.

And the solubility (mole fraction) (in ethanol, 283.15 K)?
Its solubility (mole fraction) is 0.000512.

And the solubility (mole fraction) (in ethanol, 285.65 K)?
The solubility (mole fraction) was 0.000635.

What about the solubility (mole fraction) (in ethanol, 288.15 K) of the same compound?
Its solubility (mole fraction) is 0.00079.

And the solubility (mole fraction) (in ethanol, 290.65 K)?
Its solubility (mole fraction) is 0.000971.

And the solubility (mole fraction) (in ethanol, 293.15 K)?
The solubility (mole fraction) was 0.0012.

And the solubility (mole fraction) (in ethanol, 295.65 K)?
The solubility (mole fraction) was 0.00148.

What about the solubility (mole fraction) (in ethanol, 298.15 K) of the same compound?
The solubility (mole fraction) was 0.00178.

And the solubility (mole fraction) (in ethanol, 300.65 K)?
The solubility (mole fraction) was 0.00216.

What about the solubility (mole fraction) (in ethanol, 303.15 K) of the same compound?
Its solubility (mole fraction) is 0.00264.

What about the solubility (mole fraction) (in ethanol, 305.65 K) of the same compound?
The solubility (mole fraction) was 0.0032.

What about the solubility (mole fraction) (in ethanol, 308.15 K) of the same compound?
The solubility (mole fraction) was 0.0038.

And the solubility (mole fraction) (in ethanol, 310.65 K)?
Its solubility (mole fraction) is 0.00457.

And the solubility (mole fraction) (in ethanol, 313.15 K)?
Its solubility (mole fraction) is 0.00543.

And the solubility (mole fraction) (in ethanol, 315.65 K)?
Its solubility (mole fraction) is 0.00645.

And the solubility (mole fraction) (in ethanol, 318.15 K)?
Its solubility (mole fraction) is 0.00768.

And the solubility (mole fraction) (in ethanol, 320.65 K)?
Its solubility (mole fraction) is 0.00904.

And the solubility (mole fraction) (in ethanol, 323.15 K)?
The solubility (mole fraction) was 0.0107.

What about the solubility (mole fraction) (in ethyl acetate, 283.15 K) of the same compound?
Its solubility (mole fraction) is 0.0224.

And the solubility (mole fraction) (in ethyl acetate, 285.65 K)?
The solubility (mole fraction) was 0.0259.

What about the solubility (mole fraction) (in ethyl acetate, 288.15 K) of the same compound?
Its solubility (mole fraction) is 0.0296.

What about the solubility (mole fraction) (in ethyl acetate, 290.65 K) of the same compound?
Its solubility (mole fraction) is 0.0339.

What about the solubility (mole fraction) (in ethyl acetate, 293.15 K) of the same compound?
Its solubility (mole fraction) is 0.0389.

What about the solubility (mole fraction) (in ethyl acetate, 295.65 K) of the same compound?
Its solubility (mole fraction) is 0.0442.

What about the solubility (mole fraction) (in ethyl acetate, 298.15 K) of the same compound?
The solubility (mole fraction) was 0.0509.

And the solubility (mole fraction) (in ethyl acetate, 300.65 K)?
The solubility (mole fraction) was 0.0578.

What about the solubility (mole fraction) (in ethyl acetate, 303.15 K) of the same compound?
Its solubility (mole fraction) is 0.066.

And the solubility (mole fraction) (in ethyl acetate, 305.65 K)?
Its solubility (mole fraction) is 0.0741.

And the solubility (mole fraction) (in ethyl acetate, 308.15 K)?
Its solubility (mole fraction) is 0.083.

What about the solubility (mole fraction) (in ethyl acetate, 310.65 K) of the same compound?
The solubility (mole fraction) was 0.0927.

And the solubility (mole fraction) (in ethyl acetate, 313.15 K)?
The solubility (mole fraction) was 0.105.

What about the solubility (mole fraction) (in ethyl acetate, 315.65 K) of the same compound?
Its solubility (mole fraction) is 0.118.

What about the solubility (mole fraction) (in ethyl acetate, 318.15 K) of the same compound?
The solubility (mole fraction) was 0.132.

What about the solubility (mole fraction) (in ethyl acetate, 320.65 K) of the same compound?
The solubility (mole fraction) was 0.146.

And the solubility (mole fraction) (in ethyl acetate, 323.15 K)?
The solubility (mole fraction) was 0.163.
